For one data set, the system named is C57BL/6J mice. Briefly: LPS-induced acute lung injury in mice. The format is in vivo, mouse. The method, then:
The randomization of C57bl/6j mice into experimental and control groups was based on body weight and behavioral activity assessed in an open field test 24 h before the start of the experiment. The next day, mice were treated with vehicle or test compounds 1 h before intratracheal instillation of LPS solution in sterile saline.
The randomization of C57BL/6J mice was performed by body weight and motor activity in an open field test. Dexamethasone (5 mg/kg) and 9g (30 mg/kg) were administered intraperitoneally in 10 mL/kg sterile saline. The control animals received an equal volume of the vehicle. After 1 h, the mice were anesthetized with isoflurane inhalation until their breathing rate was decreased. The mice were suspended by the front incisors on an inclined surgical table, the tongue was pulled out with narrow curved tweezers, and 1 mg/mL of E. coli O127:B8 LPS (Sigma-Aldrich, St. Louis, MO, USA) in 1 mL/kg sterile saline was injected into the back of the oropharynx. Intact control animals received an equal volume of sterile saline similarly.
The animals were placed in the center of a round open field with an arena of 44 cm diameter and 32 cm wall height under 300 lux lighting. During 5 min of observation, horizontal motor activity, vertical motor activity, time spent in the central part, the number of exits to the central part, and exploratory activity parameters were recorded. Body temperature was determined rectally.
The mice were anesthetized with 500 mg/kg chloral hydrate (Sigma-Aldrich, St. Louis, MO, USA) intraperitoneally 24 h after LPS administration. Blood was taken by intracardiac puncture in test tubes with heparin. The blood samples were centrifuged at 1000 g and 4 °C for 15 min on a 2–16PK centrifuge (Sigma, Germany), and plasma was separated and stored at −80 °C until the assay. Thoracotomy was performed, the ligature was applied to the left bronchus and the trachea was cannulated with a 20 G needle. The right lung was washed twice with 0.7 mL of warm sterile saline. After combining aliquots, the bronchoalveolar lavage (BAL) was centrifuged at 800 g and 4 °C for 10 min. The supernatant was separated and stored at −80 °C until the assay. The residual cell pellet was resuspended in 50 μL of PBS for further study. The left lung was washed in saline and placed in 10% buffered formalin for morphological evaluation.
The total number of leukocytes in heparinized blood was determined after staining with methylene blue in Goryaev’s counting chamber at ×100 magnification. Smears of blood and BAL cell pellets were air-dried, fixed according to May–Grunwald for 3 min, and stained according to Romanowsky–Giemsa. After 30 min, the slides were washed, air-dried, and examined with immersion objective (×1000 total magnification). On each slide, a total of at least 100 cells were calculated.
The concentration of total protein in BAL supernatants was determined spectrophotometrically with the pyrogallol red method, and the protein in the blood plasma was determined with the biuret method using commercial kits (Vital, Saint Petersburg, Russia) and bovine serum albumin as the standard. The lung permeability index was calculated as the protein concentration in the BAL to plasma ratio.
Morphological markers of inflammation in lung tissue were assessed in a semi-quantitative way on paraffin sections stained with hematoxylin and eosin. The sections were examined under a light microscope (Zeiss, Germany) by a double-blind method. The score of inflammation was determined as follows: 0—the presence of single inflammatory cells; 1—weak inflammation, inflammatory cells infiltrate no more than 10% of the lung tissue, including interalveolar cell partitions; 2—moderate inflammation, inflammatory cells infiltrate no more than 50% of the structures of the lung, but the interstitial tissue is identified; 3—severe inflammation, inflammatory cells densely infiltrate more than 50% of the lung tissue and airways.

The test system of data set [1] is peritoneal macrophages of C57bl/6j mice. Briefly: Cytotoxicity, lactate dehydrogenase (LDH) activity in cell supernatants. Type of data set: cell-based, mouse. The method, then: (§1) Peritoneal macrophages (PM) were isolated from the peritoneal exudate of 30 male C57bl/6j mice. To accumulate PM, 1 mL of 3% peptone solution was injected intraperitoneally. After 3 days, the mice were euthanized by cervical dislocation. Cells of peritoneal exudate were obtained by aseptic washing of the abdominal cavity with 5 mL of sterile Hanks’s solution (+4–6 °C) without calcium and magnesium ions. The total number and viability of cells were assessed in a Goryaev counting chamber (Russia) with a 0.4% trypan blue staining (Sigma-Aldrich, St. Louis, MO, USA). The cell concentration was adjusted to 1.0 × 10^6 cells/mL in DMEM (Gibco) supplemented with 2 mM L-glutamine (Gibco, Waltham, MA, USA), 10% heat-inactivated fetal bovine serum (BioClot, Bavaria, Germany), 100 U/mL penicillin, and […] streptomycin (Gibco) and plated 200 μL/well in 96-well transparent plates (SPL Life Sciences Co., Ltd., Pocheon-si, Korea). After 2 h at 37 °C in a humidified atmosphere with 5% CO2, the wells were washed to remove non-adherent cells. After 24 h of incubation, 20 μL of the supernatants were substituted with 20 μL of solutions of test compounds, followed by E. coli O127:B8 LPS (100 ng/mL final concentration) after 30 min. The experiments were run in 3 independent replicates.
(§2) The activity of lactate dehydrogenase (LDH) in a cell culture medium served as a marker of membrane permeability and cell death. […] Then, 25 μL of a 6.48 mM pyruvate solution was added to the mixture. The optical density was followed at a wavelength of 340 nm for 20 min. The MTT-test was performed 24 h after incubations of cells with tested compounds. Briefly, 20 μL of MTT solution was added to each well, incubated at 37 °C in a humidified atmosphere containing 5% CO2 for 4 h. The culture medium was removed, the cells were lysed, and formazan crystals were dissolved in 150 μL DMSO. The plates were shaken at room temperature for 10 min, and the optical density was measured in a microplate reader Infinite M200 PRO (Tecan, Grödig, Austria) at a wavelength of 565 nm.

Assay in data set [2]: as above
Type of data set: cell-based, mouse. The following applies: male, C57bl/6j, mouse, LPS-stimulated peritoneal macrophages. The procedure: as §1, §2

Data set [3] concerns LPS-stimulated peritoneal macrophages of C57bl/6j mice. Briefly: Inhibition of LPS-induced NO synthesis (nitrite accumulation, Griess reagent) in peritoneal macrophages. Type of data set: cell-based, mouse. The following applies: Mus musculus, Peritoneal macrophage. The method, then:
as §1
The accumulation of the nitrite anion (a stable end product of NO decomposition produced by iNOS) in supernatants was determined using a standard Griess reagent. Briefly, 50 μL of supernatants were collected 22 h after incubation of PM, and the test and control compounds were mixed with 50 μL of 1% […] in 2.5% H3PO4 and 50 μL of 0.1% N-(1-naphthyl) ethylenediamine in 2.5% H3PO4. After incubation at 23 °C for 10 min in an orbital shaker, the optical density was determined at a wavelength of 550 nm with a microplate reader Infinite M200 PRO (Tecan, Grödig, Austria).

Where [4] appears, read: 24 h after LPS, dexamethasone 5 mg/kg, 9g 30 mg/kg i.p.

Structures are written as SMILES. Bounds are passed on as bounds.

The source of these data is article PMC9146423, “Discovery of Nitro-azolo[1,5-a]pyrimidines with Anti-Inflammatory and Protective Activity against LPS-Induced Acute Lung Injury” (Pharmaceuticals, 2022).

As to `Cc1nc2nnnn2c(NCCc2ccc(O)cc2)c1[N+](=O)[O-]` [Compound 9g, N-[2-(4-Hydroxyphenyl)ethyl]-5-methyl-6-nitrotetrazolo-[1,5-a]pyrimidin-7-amine], in the data set on C57BL/6J mice (24 h after LPS), the Blood leukocyte subpopulations result was “normalized leukocyte subpopulations to the values of intact animals” and the “CD68+ cells in lung tissue, immunostaining” value is recorded as “decreased the immunoreactivity of the lung tissue”. The “LPS-induced lung lesions, histologic scoring (hemorrhage and neutrophil infiltration)” value in the data set with C57BL/6J mice (24 h after LPS, H&E, semi-quantitative) is on record as “significantly ameliorated”. In addition, in the data set on C57BL/6J mice (setting [4]), the “Blood plasma IL-6 level” value is given as “normalized the blood plasma IL-6 level” and the “Permeability of pulmonary vessels (lung permeability index)” value is listed as “prevent the increase in permeability of pulmonary vessels”. In addition, in the data set on C57BL/6J mice (24 h after LPS, dexamethasone 5 mg/kg, 9g 30 mg/kg i.p. 1 h before LPS), the “Horizontal motor activity, open field test” value is listed as “restored motor activity of animals comparably to dexamethasone”. For the same compound, in the data set on C57BL/6J mice (24 h after LPS, monocytes in BAL increased), the “Segmented neutrophils count in BAL (in words)” value is reported as “significantly decreased the segmented neutrophils count”. Moreover, the “Spleen mass and lymphocyte content (markers of immunodepression)” value in the data set on C57BL/6J mice (LPS-treated mice, dexamethasone 5 mg/kg, 9g 30 mg/kg i.p.) is listed as “nonsignificant”. Also, the LPS-induced hypothermia entry in the data set on C57BL/6J mice (body temperature determined rectally) is given as “attenuated LPS-induced hypothermia”. In addition, the “Segmented neutrophils, share of BAL cells” value with C57BL/6J mice (bronchoalveolar lavage 24 h after LPS, dexamethasone 5 mg/kg, 9g 30 mg/kg i.p.) came out at 37.6%. Also, the “Number of center entries and time in the center, open field test” value in the data set on C57BL/6J mice (dexamethasone 5 mg/kg, 9g 30 mg/kg i.p.) was “restored the number of center entries and time in the center to intact levels”. Besides, the “Cytotoxic properties during the phagocytosis experiment (LDH)” value in data set [1] (up to 72 h of incubation) is listed as “No cytotoxic properties were noted”. The “Effect on viability of the macrophages” value in data set [1] (up to a concentration of 50 μM) is “did not affect the viability”. In addition, in data set [2], the CC50 at 24 h was greater than 100 µM. Also, the inhibition at 100 µM in data set [3] (22 h, 100 μM, m ± SD, read-out: Inhibition of NO Synthesis vs. LPS Control) is 58.5 ± 5.93%. Further, inhibition in data set [3] (LPS-stimulated peritoneal macrophages) was half-maximal at 3.72 µM (IC50).
